Common to all, as to assay: ≥ marks a high value that may be exact or a test limit, other limits are often not marked, values filed in µg/mL are converted to µM
Assay [1] deals with Escherichia coli K12 MG1655.
The test system of assay [2] is Candida albicans ATCC 2002.
The test system of assay [3] is Escherichia coli ATCC 25922.
In assay [4] the test system is Pseudomonas aeruginosa CMCCB 10104.
In assay [5] the test system is Staphylococcus aureus ATCC 25923.
Assay [6] concerns Bacillus subtilis ATCC 23857.
Assay [7] deals with Pseudomonas aeruginosa ATCC 9027.
Assay [8] has as its system Staphylococcus aureus ATCC 6538.
The test system of assay [9] is Corynebacterium xerosis C875.
Another assay deals with Escherichia coli DC2.
A further assay deals with Escherichia coli UB1005.
Assay [10] has as its system Staphylococcus epidermidis C621.
In assay [11] the test system is Klebsiella pneumoniae ATCC 700603.
For assay [12], the system named is Pseudomonas aeruginosa PAO1.
For assay [13], the system named is Salmonella enterica serovar Typhimurium.

Here are results for 12 compounds from DBAASP.

As a reminder, the MIC is the lowest concentration that inhibits growth of the organism.

The structures appear in SMILES notation. Converted amounts (≈) assume the structure as drawn.

For the compound `CC[C@H](C)[C@H](NC(=O)[C@H](CC(=O)O)NC(=O)[C@H](Cc1c[nH]c2ccccc12)NC(=O)[C@H](CO)NC(=O)[C@H](CCCN=C(N)N)NC(=O)[C@@H](N)CCCCN)C(=O)N[C@H](C(=O)N[C@@H](CCCCN)C(=O)N[C@@H](CCCCN)C(=O)N[C@@H](Cc1ccc(O)cc1)C(=O)N[C@H](C(=O)NCC(=O)N[C@H](C(=O)N[C@H](C(=O)N[C@H](C(=O)NCC(=O)N[C@H](C(=O)N[C@H](C(=O)N[C@@H](Cc1cnc[nH]1)C(=O)O)[C@@H](C)CC)[C@@H](C)O)C(C)C)C(C)C)C(C)C)C(C)C)C(C)C` [KRSWDIVKKYVGVVVGTIH], in assay [1], the MIC is at least 58.6 µM.

`CC[C@H](C)[C@H](NC(=O)[C@H](CC(C)C)NC(=O)[C@@H](NC(=O)[C@H](Cc1ccccc1)NC(=O)[C@H](CC(C)C)NC(=O)CN)[C@@H](C)O)C(=O)N[C@@H](CCCCN)C(=O)NCC(=O)N[C@@H](C)C(=O)N[C@@H](Cc1ccc(O)cc1)C(=O)N[C@@H](CCCCN)C(=O)N[C@@H](CC(C)C)C(=O)N[C@@H](CC(=O)O)C(=O)N[C@@H](C)C(=O)N1CCC[C@H]1C(=O)N[C@H](C(=O)N[C@H](C(=O)N[C@@H](C)C(=O)N[C@@H](CS)C(=O)N[C@@H](CC(N)=O)C(=O)O)C(C)C)[C@@H](C)O` [GLFTLIKGAYKLDAPTVACN]: the MIC in assay [2] came out at 9.59 µM (≈ 20.1 µg/mL); in assay [3] it was 19.2 µM (≈ 40.2 µg/mL); in [4], 19.2 µM (≈ 40.2 µg/mL); in assay [5], 9.59 µM (≈ 20.1 µg/mL).

As for `CC[C@H](C)[C@H](NC(=O)CN)C(=O)N[C@@H](CC(C)C)C(=O)N[C@@H](CCCCN)C(=O)N[C@@H](CCCCN)C(=O)N[C@H](C(=O)N[C@@H](CC(C)C)C(=O)N[C@@H](CCCCN)C(=O)N[C@@H](CCCCN)C(=O)N[C@H](C(=O)N[C@@H](CC(C)C)C(=O)N[C@@H](CCCCN)C(=O)N[C@@H](CCCCN)C(=O)N[C@@H](CC(C)C)C(N)=O)[C@@H](C)CC)[C@@H](C)CC` [GILKKILKKILKKL], the MIC in assay [6] stood at 1.6 µM (≈ 2.62 µg/mL); in assay [3] it was 9.3 µM (≈ 15.2 µg/mL); in assay [7], 5.8 µM (≈ 9.48 µg/mL); in [8], 5.2 µM (≈ 8.5 µg/mL).

Turning to `C[C@H](NC(=O)[C@H](C)NC(=O)[C@H](C)NC(=O)[C@H](CO)NC(=O)[C@H](C)NC(=O)[C@H](C)NC(=O)[C@H](C)NC(=O)[C@H](CCCCN)NC(=O)[C@@H](N)CCCCN)C(=O)N[C@@H](C)C(=O)N[C@@H](C)C(=O)N[C@@H](CO)C(=O)N[C@@H](C)C(=O)N[C@@H](C)C(=O)N[C@@H](Cc1c[nH]c2ccccc12)C(=O)N[C@@H](C)C(=O)N[C@@H](C)C(=O)N[C@@H](CO)C(=O)N[C@@H](C)C(=O)N[C@@H](C)C(=O)N[C@@H](C)C(=O)N[C@@H](CCCCN)C(=O)N[C@@H](CCCCN)C(=O)N[C@@H](CCCCN)C(=O)N[C@@H](CCCCN)C(N)=O` [KKAAASAAAAASAAWAASAAAKKKK], the MIC (in assay [9]; against Escherichia coli DC2; in the assay on Escherichia coli UB1005; in assay [10]) was at least 64 µM throughout.

On to `CC[C@H](C)[C@H](NC(=O)[C@H](CC(N)=O)NC(=O)[C@H](CCCCN)NC(=O)[C@H](CCCCN)NC(=O)[C@@H]1CCCN1C(=O)[C@H](Cc1ccccc1)NC(=O)[C@@H](NC(=O)[C@@H](N)Cc1ccccc1)[C@@H](C)CC)C(=O)N[C@H](C(=O)N[C@@H](CC(N)=O)C(=O)N[C@@H](CO)C(=O)N[C@@H](CC(C)C)C(=O)N[C@@H](Cc1ccccc1)C(=O)NCC(=O)N[C@@H](CCCN=C(N)N)C(=O)O)[C@@H](C)CC` [FIFPKKNIINSLFGR], for which the MIC in [2] was 8.92 µM (≈ 16 µg/mL); in assay [3] it was over 70.2 µM; in assay [4], 8.92 µM (≈ 16 µg/mL); in assay [5], 8.92 µM (≈ 16 µg/mL).

`CC[C@H](C)[C@H](NC(=O)[C@H](CCCCN)NC(=O)[C@H](CCCCN)NC(=O)[C@H](C)NC(=O)[C@@H](NC(=O)[C@H](C)NC(=O)[C@H](CC(C)C)NC(=O)[C@H](CC(C)C)NC(=O)[C@H](C)NC(=O)[C@H](CCCCN)NC(=O)[C@H](C)NC(=O)[C@H](CC(N)=O)NC(=O)[C@@H](N)CC(C)C)C(C)C)C(=O)N[C@@H](CC(C)C)C(N)=O` [LNAKALLAVAKKIL]: the MIC in [6] amounted to 8 µM (≈ 11.7 µg/mL); in [3], 8 µM (≈ 11.7 µg/mL); in assay [11] it was 32 µM (≈ 46.9 µg/mL); in [7], 32 µM (≈ 46.9 µg/mL); in assay [5], 32 µM (≈ 46.9 µg/mL).

On to `CC[C@H](C)[C@H](NC(=O)CNC(=O)[C@H](CC(=O)O)NC(=O)[C@H](CC(C)C)NC(=O)[C@H](CC(C)C)NC(=O)CN)C(=O)N[C@@H](CC(C)C)C(=O)N[C@@H](CC(N)=O)C(=O)N[C@@H](C)C(=O)N[C@@H](CC(N)=O)C(=O)N[C@@H](Cc1ccccc1)C(=O)N[C@@H](CC(N)=O)C(=O)N[C@@H](C)C(=O)N[C@@H](C)C(=O)N[C@@H](CCCCN)C(=O)N[C@@H](CO)C(=O)N[C@@H](C)C(=O)NCC(=O)N[C@H](C(=O)N[C@@H](CO)C(=O)N[C@H](C(=O)N[C@@H](CC(C)C)C(=O)N[C@@H](CC(N)=O)C(=O)N[C@@H](C)C(=O)N[C@@H](CC(C)C)C(=O)N[C@@H](CO)C(=O)N[C@H]1CSSC[C@@H](C(=O)O)NC(=O)[C@H]([C@@H](C)O)NC(=O)[C@H](CCCCN)NC(=O)[C@H](CO)NC(=O)[C@H](CC(C)C)NC(=O)[C@H](CCCCN)NC1=O)C(C)C)[C@@H](C)O` [GLLDGILNANFNAAKSAGTSVLNALSCKLSKTC], for which the MIC in assay [2], in assay [3], in assay [4] and in assay [5] was 9.28 µM (≈ 30.6 µg/mL) each time.

With `CSCC[C@H](NC(=O)[C@H](CCC(=O)O)NC(=O)[C@H](C)NC(=O)[C@H](C)NC(=O)[C@@H](NC(=O)CNC(=O)[C@H](C)NC(=O)[C@@H](NC(=O)[C@H](Cc1ccccc1)NC(=O)[C@@H]1CCCN1C(=O)[C@@H](N)CC(C)C)C(C)C)C(C)C)C(=O)N[C@@H](CCSC)C(=O)N[C@@H](CCC(N)=O)C(=O)N[C@@H](Cc1cnc[nH]1)C(=O)N[C@H](C(=O)N[C@@H](Cc1ccc(O)cc1)C(=O)N[C@H]1CSSC[C@@H](C(=O)O)NC(=O)[C@H](CCCCN)NC(=O)[C@H](CCCCN)NC(=O)[C@H](CO)NC(=O)[C@H](C)NC(=O)[C@H](C)NC1=O)C(C)C` [LPFVAGVAAEMMQHVYCAASKKC], the MIC in [2] worked out at 4.32 µM (≈ 10.6 µg/mL); in assay [3], 2.16 µM (≈ 5.3 µg/mL); in assay [4], 17.3 µM (≈ 42.4 µg/mL); in [5], 4.32 µM (≈ 10.6 µg/mL).

`CC[C@H](C)[C@H](NC(=O)[C@H](CCCN=C(N)N)NC(=O)[C@@H](NC(=O)[C@H](CCCN=C(N)N)NC(=O)[C@H](Cc1c[nH]c2ccccc12)NC(=O)[C@H](CCC(N)=O)NC(=O)[C@@H](N)C(C)C)[C@@H](C)CC)C(=O)N[C@@H](C)C(=O)N[C@H](C(=O)N[C@H](C(=O)N[C@@H](CCCN=C(N)N)C(=O)N[C@@H](CCCCN)C(=O)O)[C@@H](C)CC)C(C)C` [VQWRIRIAVIRK]: the MIC in assay [3] stood at 10.4 µM (≈ 16 µg/mL); in assay [12], 20.8 µM (≈ 32 µg/mL); in assay [13], 10.4 µM (≈ 16 µg/mL); in assay [5], 10.4 µM (≈ 16 µg/mL).

As for `CC[C@H](C)[C@H](NC(=O)[C@H](CCCN=C(N)N)NC(=O)[C@H](Cc1c[nH]c2ccccc12)NC(=O)[C@H](CCC(N)=O)NC(=O)[C@@H](N)CCCCN)C(=O)N[C@@H](CCCN=C(N)N)C(=O)N[C@H](C(=O)N[C@@H](CS)C(=O)N[C@H](C(=O)N[C@H](C(=O)N[C@@H](CCCN=C(N)N)C(=O)N[C@@H](C)C(=O)O)[C@@H](C)CC)C(C)C)C(C)C` [KQWRIRVCVIRA], the MIC in [3] is 20.9 µM (≈ 32 µg/mL); in assay [12], 41.9 µM (≈ 64 µg/mL); in [13], 20.9 µM (≈ 32 µg/mL); in assay [5], 20.9 µM (≈ 32 µg/mL).

Consider `CC[C@H](C)[C@H](NC(=O)[C@H](CCCCN)NC(=O)[C@@H](NC(=O)[C@@H](NC(=O)[C@H](CCCCN)NC(=O)[C@H](CCCCN)NC(=O)[C@@H](NC(=O)[C@@H](NC(=O)[C@H](CCCCN)NC(=O)[C@H](CCCCN)NC(=O)[C@@H](NC(=O)[C@@H](N)CCCCN)[C@@H](C)CC)[C@@H](C)CC)[C@@H](C)CC)[C@@H](C)CC)[C@@H](C)CC)C(N)=O` [KIKKIIKKIIKI], for which the minimal inhibitory concentration (MIC) is 15.1 µM (≈ 22.1 µg/mL) in [6], 219 µM (≈ 321 µg/mL) in assay [3], 9 µM (≈ 13.2 µg/mL) in assay [7] and 339 µM (≈ 497 µg/mL) in assay [8].

With `CC[C@H](C)[C@H](NC(=O)[C@H](C)NC(=O)[C@H](CC(C)C)NC(=O)[C@H](CC(N)=O)NC(=O)[C@H](CCCCN)NC(=O)[C@H](CC(C)C)NC(=O)[C@@H](NC(=O)[C@H](CC(=O)O)NC(=O)[C@H](CC(C)C)NC(=O)[C@H](Cc1ccccc1)NC(=O)[C@@H](N)CO)[C@@H](C)O)C(=O)N[C@@H](CO)C(=O)N[C@@H](C)C(=O)N[C@@H](C)C(=O)N[C@@H](CCCCN)C(=O)NCC(=O)N[C@@H](C)C(=O)NCC(=O)N[C@@H](CCC(N)=O)C(=O)N[C@@H](CO)C(=O)N[C@H](C(=O)N[C@@H](CC(C)C)C(=O)N[C@@H](CO)C(=O)N[C@H](C(=O)N[C@@H](CC(C)C)C(=O)N[C@@H](CO)C(=O)N[C@H]1CSSC[C@@H](C(=O)O)NC(=O)[C@H]([C@@H](C)O)NC(=O)[C@H](CCCCN)NC(=O)[C@H](CO)NC(=O)[C@H](CC(C)C)NC(=O)[C@H](CCCCN)NC1=O)[C@@H](C)O)C(C)C` [SFLDTLKNLAISAAKGAGQSVLSTLSCKLSKTC], the MIC in assay [2], in assay [3], in [4] and in assay [5] was 3.9 µM (≈ 13.1 µg/mL) each time.
